Test results: EP1925314A1, “Pharmaceutical composition with synergistic anticonvulsant effect” (SCHWARZ PHARMA AG, priority 2006, dated 2008)
Where two headings read alike, the source gives them in different places.

Experiments:
[1] = system: 6 Hz-induced seizures; experiment: 6 Hz seizure test in mice, with isobolographic analysis of drug combinations; conditions: for anticonvulsant effects against 6 Hz seizure: i.p., mice
[2] = system: epileptic seizures; experiment: ED50 of the individual compounds, seizure model not given (various models of the rat and the mouse); type: in vivo; conditions: ip
Description: The skilled person may determine the ED50 values by methods known in the art. It is preferred that the ED50 values are determined by preclinical or/and clinical trials. Published ED50 values may also be used. […] Tables 5 and 6 disclose specific ED50 values obtained in various models of the rat and the mouse. A person skilled in the art knows that in a particular model, among different species, ED50 values show a variation by a factor of up to 5 or even larger.

[3] = system: 6 Hz-induced seizures; conditions: literature observation (Gower et al., 1993; Klitgaard et al., 1998); cited from earlier work
[4] = system: 6 Hz psychomotor seizures; conditions: determined in the anticonvulsant drug screening program of NINDS; cited from earlier work
[5] = Clinical population pharmacokinetic analysis
[6] = system: cobalt-homocysteine-induced status epilepticus; conditions: Bialer et al., 2001, 2002; cited from earlier work
[7] = system: refractory self-sustaining status epilepticus; conditions: in vivo; cited from earlier work
[8] = system: drug metabolizing enzymes; experiment: Inhibition, induction and metabolism by drug metabolizing enzymes; conditions: a large variety of enzymes
[9] = system: mouse cortical neurons; conditions: mouse cortical neurons (Bialer et al., 2002); cited from earlier work
[10] = system: lithium-pilocarpine-induced status epilepticus; conditions: Bialer et al., 2001, 2002; cited from earlier work
[11] = system: pattern of neuronal activation; conditions: Duncan and Kohn (2004); cited from earlier work
[12] = approximate value, model not stated, read-out: ED50

In the case of `CC1(C)O[C@@H]2[C@@H](CO[C@@]3(COS(N)(=O)=O)OC(C)(C)O[C@@H]23)O1` [TPM, topiramate], the “anticonvulsant effects against 6 Hz seizure” value (shortened to “anticonvulsant effects”) ([1]; drugs administered alone) is reported as “dose-dependent anticonvulsant effects” and the ED50 [2, 12] is reported as ~300 mg/kg.
In the case of `Nc1nnc(-c2cccc(Cl)c2Cl)c(N)n1` [LTG, lamotrigine], the “anticonvulsant effects” value ([1]; drugs administered alone) is reported as “dose-dependent anticonvulsant effects” and the ED50 [2] is reported as ~85 mg/kg.
In the case of `CC[C@@H](C(N)=O)N1CCCC1=O` [LEV, levetiracetam], the “anticonvulsant effects” value ([1]; drugs administered alone) is given as “dose-dependent anticonvulsant effects”, the “protection in the 6Hz test” value [3] is given as “complete protection” and the ED50 [2] is given as ~20 mg/kg.
For `COC[C@@H](NC(C)=O)C(=O)NCc1ccccc1` [LCM, R-2-acetamido-N-benzyl-3-methoxypropionamide], the ED50 [4] is listed as 9.9 mg/kg, the “effect of LCM on plasma levels of AEDs or vice versa” value [5] is listed as “no evidence for any effect” and the ED50 ([1]; Mus musculus, ip, 0.5 h) is listed as 10.1 mg/kg. The “anticonvulsant effects” value ([1]; drugs administered alone) was “dose-dependent anticonvulsant effects”, the “potency compared to the other tested AEDs” value ([1]; drugs administered alone, lowest ED50) was “highest potency” and the “efficacy against cobalt-homocysteine-induced status epilepticus” value [6] was “effective”. For the same compound, the ED50 [2] was ~10 mg/kg, the “activity against refractory self-sustaining status epilepticus” value [7] was “active” and the “inhibition or induction of drug metabolizing enzymes” value [8] was “does not inhibit or induce”. The GABA currents [9] was “increased”, the glutamate transmission [9] was “inhibited glutamate transmission indirectly” and the “efficacy against lithium-pilocarpine-induced status epilepticus” value [10] was “effective”. For the same compound, the “specific pattern of neuronal activation” value [11] was “attenuated”.
For `O=C1NC(=O)C(c2ccccc2)(c2ccccc2)N1` [PHT, phenytoin], the “anticonvulsant effects” value ([1]; drugs administered alone) was “dose-dependent anticonvulsant effects”.
In the case of `NCC1(CC(=O)O)CCCCC1` [GBP, gabapentin], the “anticonvulsant effects” value ([1]; drugs administered alone) is reported as “dose-dependent anticonvulsant effects” and the ED50 [2] is reported as ~220 mg/kg.
In the case of `NC(=O)N1c2ccccc2C=Cc2ccccc21` [CBZ, carbamazepine], the “anticonvulsant effects” value ([1]; drugs administered alone) is reported as “dose-dependent anticonvulsant effects” and the ED50 [2, 12] is reported as ~50 mg/kg.
